According to patent US9828364B2, “Pyrazole compounds as BTK inhibitors” (Boehringer Ingelheim International GmbH, priority 2014, dated 2017):

Assays:
[1] = target: T1, full-length human His-tagged BTK (Homo sapiens, UniProt Q06187); assay: BTK HTRF assay (Cisbio KinEASE-TK); type: biochemical; conditions: 6 nM BTK, 30 uM ATP, 15 min preincubation
T1 construct: 6 nM of full-length human His-tagged BTK (Life Technologies cat # PV3587); His; purchased Life Technologies PV3587
Experimental: Description of Biological Properties BTK Assay
An HTRF assay (Cisbio KinEASE-TK cat #62TK0PEC) was performed to quantitate the ability of test compounds to inhibit BTK mediated phosphorylation of substrate. Assays were assembled in 384 well plates where 6 nM of full-length human His-tagged BTK (Life Technologies cat # PV3587) and test compound at varying concentrations were preincubated for 15 minutes at 28° C. Then, 1 uM of TK substrate-biotin and 30 uM ATP were added and incubated for an additional 30 minutes at 28° C. Phospohrylation was detected by adding 62.5 nM Streptavidin-XL665 and TK-Antibody Cryptate diluted 1:100 in HTRF detection buffer (Cisbio cat #62SDBRDF) and incubated for 60 minutes at RT. The plate was read on an Envision plate reader and the fluorescence is measured at 620 nm (cryptate) and 665 nm (XL665). A ratio is calculated (665/620) and converted to POC relative to control and blank wells.
50 mM HEPES (Invitrogen #15630), 0.01% Brij-35 (sigma #B4184), 10 mM MgCl2 (Sigma M1028), 1 mM EGTA (Ambion AM9262) and 100 uM sodium orthovanedate (Sigma S6508), 1 mM DTT (Sigma D5545) and 10 nM supplement enzyme buffer (Cisbio cat#61SEBALB).

[2] = test system: BTK activity measured by IL-6 production in primary CD19+ cells; assay: Inhibition of IL-6 production in B cells co-stimulated with ODN 2006 and anti-hIgD; type: cell-based; conditions: B-cell, anti-human IgD + ODN 2006, 18-24 hours
Experimental: (§1) The compounds described herein show a range of selectivities against EGFR as measured in cellular assays (BTK activity measured by IL-6 production in primary CD19^+ cells; EGFR activity measured by EGFR phosphorylation in A431 cells).
Inhibition of IL-6 Production in B Cells Co-Stimulated with ODN 2006 and Anti-hIgD
Primary CD19+ B cells (AllCells # PB010F) are thawed and plated in RPMI containing 10% HI FBS in a 384-well tissue cultured plate at 20,000 cells/well. The cells are treated with test compound (0.5% DMSO final concentration) and incubated for 1 hour at 37° C., 5% CO2. Cells are then stimulated with 5 ug/mL Goat F(ab′)2 anti-human IgD (SouthernBiotech #2032) and 2 uM ODN 2006 (InvivoGen # tlrl-2006) and incubated for 18-24 hours at 37° C., 5% CO2. IL-6 in the supernatant is measured using Meso Scale Discovery kit # K211AKB-6.

[3] = test system: EGFR phosphorylation in A431 cells; assay: Inhibition of EGFR autophosphorylation in A431 human epithelial cells stimulated with EGF; type: cell-based; conditions: A-431, 16 hours compound, EGF 60 ng/mL 10 minutes, read-out: A431 p-EGFR IC50
Excerpt: as §1
Inhibition of EGFR Autophosphorylation in A431 Human Epithelial Cells Stimulated with Epithelial Growth Factor
A431 cells (ATCC # CRL-1555 FZ) are thawed and plated in DMEM containing 10% FBS in a 384-well tissue culture treated plate at 15,000 cells/well. After incubating for 24 hours at 37° C., 5% CO2, the cells are treated with test compound (1% DMSO final concentration) and incubated for 16 hours at 37° C., 5% CO2. EGF (Millipore, 01-107) is added at a final concentration of 60 ng/mL and incubated for 10 minutes. The medium is removed, the cells are lysed, and phospho EGFR is measured (Meso Scale Diagnostics, N31CB-1).

T1 sequence (Q06187 whole entry): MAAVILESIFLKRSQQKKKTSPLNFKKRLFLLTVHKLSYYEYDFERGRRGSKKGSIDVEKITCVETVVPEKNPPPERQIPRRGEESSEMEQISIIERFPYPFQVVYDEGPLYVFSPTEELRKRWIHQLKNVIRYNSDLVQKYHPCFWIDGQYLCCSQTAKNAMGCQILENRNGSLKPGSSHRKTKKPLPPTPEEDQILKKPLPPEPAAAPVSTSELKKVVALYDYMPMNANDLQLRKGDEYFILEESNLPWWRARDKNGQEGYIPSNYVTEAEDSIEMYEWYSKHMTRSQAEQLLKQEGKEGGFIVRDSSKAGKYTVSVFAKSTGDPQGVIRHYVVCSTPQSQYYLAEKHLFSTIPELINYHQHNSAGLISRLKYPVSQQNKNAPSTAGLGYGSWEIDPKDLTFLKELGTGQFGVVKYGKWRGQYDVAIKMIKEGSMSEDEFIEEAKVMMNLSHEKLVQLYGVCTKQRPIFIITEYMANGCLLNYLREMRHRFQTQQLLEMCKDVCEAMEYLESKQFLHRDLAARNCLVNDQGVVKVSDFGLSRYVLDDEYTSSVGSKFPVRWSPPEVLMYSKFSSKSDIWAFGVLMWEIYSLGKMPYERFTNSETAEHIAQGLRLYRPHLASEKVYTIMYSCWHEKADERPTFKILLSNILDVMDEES

| IC50 [1] | IC50 [2] | IC50 [3] | Structure (SMILES) |
| --- | --- | --- | --- |
| 0.9 nM |  |  | CCC#CC(=O)N1CC[C@]2(C1)C[C@H](n1nc(-c3ccc(COC)cc3)c(C(N)=O)c1N)C2 [Example 12] |
| 0.7 nM |  |  | COCc1ccc(-c2nn([C@H]3C[C@@]4(CCN(C(=O)C#CC5CC5)C4)C3)c(N)c2C(N)=O)cc1 [Example 13] |
| 0.6 nM |  |  | COCc1ccc(-c2nn([C@H]3C[C@@]4(CCN(C(=O)C#CC5CCC5)C4)C3)c(N)c2C(N)=O)cc1 [Example 14] |
| 3.6 nM |  |  | CC#CC(=O)N1CC[C@]2(C1)C[C@H](n1nc(-c3ccc(C(C)OCC)cc3)c(C(N)=O)c1N)C2 (stereo partly shown) [Example 15] |
| 1.8 nM |  |  | CCC#CC(=O)N1CC[C@]2(C1)C[C@H](n1nc(-c3ccc(C(C)OCC)cc3)c(C(N)=O)c1N)C2 (stereo partly shown) [Example 16] |
| 1.2 nM |  |  | CCOC(C)c1ccc(-c2nn([C@H]3C[C@@]4(CCN(C(=O)C#CC5CC5)C4)C3)c(N)c2C(N)=O)cc1 (stereo partly shown) [Example 17] |
| 150 nM |  |  | C=CC(=O)N1CC[C@]2(C1)C[C@H](n1nc(-c3ccc(C(O)C(C)C)cc3)c(C(N)=O)c1N)C2 (stereo partly shown) [Example 18] |
| 4.5 nM | 5.1 nM | 3 µM | CC#CC(=O)N1CC[C@]2(C1)C[C@H](n1nc(-c3ccc(C(O)C(C)C)cc3)c(C(N)=O)c1N)C2 (stereo partly shown) [Example 19] |
| 66 nM |  |  | C=CC(=O)N1CC[C@]2(C1)C[C@H](n1nc(-c3ccc(CO)cc3)c(C(N)=O)c1N)C2 [Example 20] |
| 2.5 nM |  |  | CC#CC(=O)N1CC[C@]2(C1)C[C@H](n1nc(-c3ccc(CO)cc3)c(C(N)=O)c1N)C2 [Example 21] |
| 59 nM |  |  | CC#CC(=O)N1CCC[C@]2(C1)C[C@H](n1nc(-c3ccc(C(O)C4CC4)cc3)c(C(N)=O)c1N)C2 (stereo partly shown) [Example 22] |
| 68 nM |  |  | C=CC(=O)N1CCC[C@]2(C1)C[C@@H](n1nc(-c3ccc(C(O)C4CC4)cc3)c(C(N)=O)c1N)C2 (stereo partly shown) [Example 23] |
| 240 nM |  |  | C=CC(=O)N1CC2(CC(n3nc(-c4ccc(C5(CO)CC5)cc4)c(C(N)=O)c3N)C2)C1 [Example 24] |
| 1.4 nM | 7 nM | > 10 µM | CC#CC(=O)N1CC[C@]2(C1)C[C@H](n1nc(-c3ccc(CCO)cc3)c(C(N)=O)c1N)C2 [Example 25] |
| 2.4 nM |  |  | CC#CC(=O)N1CC[C@]2(C1)C[C@H](n1nc(-c3ccc(C4(CO)CC4)cc3)c(C(N)=O)c1N)C2 [Example 26] |
| 12 nM | 93 nM | > 10 µM | CC#CC(=O)N1CC[C@]2(C1)C[C@H](n1nc(-c3ccc(S(C)(=O)=O)cc3)c(C(N)=O)c1N)C2 [Example 27] |

More lines, now with the values behind:

| Structure (SMILES) | IC50 [1] | IC50 [2] | IC50 [3] |
| --- | --- | --- | --- |
| C=CC(=O)N1CC2(CC(n3nc(-c4ccc(C(C)OCC)cc4)c(C(N)=O)c3N)C2)C1 (stereo not shown) [Example 1] | 100 nM |  |  |
| C=CC(=O)N1CC2(CC(n3nc(-c4ccc(C(C)OC)cc4)c(C(N)=O)c3N)C2)C1 (stereo not shown) [Example 2] | 200 nM |  |  |
| C=CC(=O)N1CC2(CC(n3nc(-c4ccc(COC)cc4)c(C(N)=O)c3N)C2)C1 [Example 3] | 94 nM |  |  |
| C=CC(=O)N1CC[C@]2(C1)C[C@H](n1nc(-c3ccc(COC)cc3)c(C(N)=O)c1N)C2 [Example 4] | 26 nM |  |  |
| CC#CC(=O)N1CC[C@]2(C1)C[C@H](n1nc(-c3ccc(COC)cc3)c(C(N)=O)c1N)C2 [Example 5] | 2 nM | 2.4 nM | 6.1 µM |
| C=CC(=O)N1CCC[C@]2(C1)C[C@@H](n1nc(-c3ccc(COC)cc3)c(C(N)=O)c1N)C2 [Example 6] | 460 nM |  |  |
| C=CC(=O)N1CCC[C@]2(C1)C[C@H](n1nc(-c3ccc(COC)cc3)c(C(N)=O)c1N)C2 [Example 7] | 450 nM |  |  |
| CC#CC(=O)N1CCC[C@]2(C1)C[C@@H](n1nc(-c3ccc(COC)cc3)c(C(N)=O)c1N)C2 [Example 8] | 160 nM |  |  |
| CC#CC(=O)N1CCC[C@]2(C1)C[C@H](n1nc(-c3ccc(COC)cc3)c(C(N)=O)c1N)C2 [Example 9] | 8.2 nM | 6.3 nM | > 10 µM |
| CC#CC(=O)N1CC[C@]2(C1)C[C@H](n1nc(-c3ccc(C(C)OC)cc3)c(C(N)=O)c1N)C2 (stereo partly shown) [Example 10] | 9.3 nM |  |  |
| CC#CC(=O)N1CC[C@]2(C1)C[C@H](n1nc(-c3ccc(COCC)cc3)c(C(N)=O)c1N)C2 [Example 11] | 2.2 nM |  |  |
